According to ChEMBL document CHEMBL1201862, “PubChem BioAssay data set” (2004):
Each block holds one compound with its values, some of them ahead of it. Calls of active or inactive are those of the source.

Assays:
[1] = biological target: Mitogen-activated protein kinase 10 (Homo sapiens, UniProt P53779); assay: Dose response biochemical screening assay for inhibitors of c-Jun N-Terminal Kinase 3 (JNK3). [Related pubchem assays: 746 ]
[2] = biological target: Protein-tyrosine kinase 2-beta (Homo sapiens, UniProt Q14289);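 also: potency of inhibitors of PYK2 kinase phosphorylation of poly-GT substrate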
Bcl-2-like protein 10 = biological target: T1, Bcl-2-like protein 10 (Homo sapiens, UniProt Q9HD36); assay: Bcl-B/TR3 peptide binding disruption – biochemical, fluorescence polarization, FITC-TR3 peptide, selectivity assay for Bfl-1 inhibitor project, primary screen (AID 748);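 also: fluorescence polarization from a fluorescein-labelled TR3 peptide binding purified Bcl-B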
T1 sequence (Q9HD36 whole entry): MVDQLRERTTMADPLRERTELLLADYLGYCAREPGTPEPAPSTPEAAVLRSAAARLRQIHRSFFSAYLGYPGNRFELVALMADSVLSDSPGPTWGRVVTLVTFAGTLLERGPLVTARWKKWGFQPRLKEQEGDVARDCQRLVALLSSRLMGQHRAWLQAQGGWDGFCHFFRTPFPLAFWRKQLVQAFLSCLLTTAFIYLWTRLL

[3] = biological target: Eukaryotic translation initiation factor 4E (Mus musculus, UniProt P63073); assay: blockers of eIF4G binding by eIF4E – biochemical, TR-FRET, dose response (AID 855); format: functional;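 also: potency for disrupting eIF4E binding to eIF4GI seen as loss of FRET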
[4] = biological target: T2, Polyadenylate-binding protein 1 (Homo sapiens, UniProt P11940); assay: MLLE binding blockers, Cy5 peptide tracer – biochemical, fluorescence polarization, Cy5-PAM2 peptide, secondary, miRNA deadenylation inhibitor project, dose response (AID 602260); format: functional; conditions: read-out: IC50_Mean
Cytochrome P450 2C9 = Cytochrome P450 2C9 (Homo sapiens, UniProt P11712)
[5] = biological target: Heat shock protein HSP 90-alpha (Homo sapiens, UniProt P07900); assay: Luminescence-based dose response biochemical high throughput screening assay for inhibitors of the Heat Shock Protein 90 (HSP90). [Related pubchem assays: 1831 (Summary AID.), 1846 (Confirmation screen.), 1789 (Primary screen.)]
[6] = biological target: T2, Polyadenylate-binding protein 1; assay: MLLE domain peptide-binding blockers, IC50 – biochemical, fluorescence polarization, FITC-PAM2 peptide, dose response (AID 602259); format: functional; conditions: read-out: IC50_Mean
[7] = biological target: T3, Ubiquitin-conjugating enzyme E2 N (Homo sapiens, UniProt P61088); format: functional;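 also: Dose-response confirmation in a TR-FRET assay detecting UBC13-driven polyubiquitin chain formation, inhibition measured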
T3 sequence (P61088 whole entry): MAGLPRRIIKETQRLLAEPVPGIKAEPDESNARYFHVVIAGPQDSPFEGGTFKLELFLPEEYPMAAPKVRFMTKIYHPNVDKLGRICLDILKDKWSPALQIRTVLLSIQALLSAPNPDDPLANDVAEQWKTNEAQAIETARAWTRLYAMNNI

[8] = biological target: T4, Carboxy-terminal domain RNA polymerase II polypeptide A small phosphatase 1 (Homo sapiens, UniProt Q9GZU7); assay: CTDSP1 inhibitors, concentration-response, biochemical, absorbance readout, ultra-high-throughput screen actives (AID 540297); format: functional
T4 sequence (Q9GZU7 whole entry): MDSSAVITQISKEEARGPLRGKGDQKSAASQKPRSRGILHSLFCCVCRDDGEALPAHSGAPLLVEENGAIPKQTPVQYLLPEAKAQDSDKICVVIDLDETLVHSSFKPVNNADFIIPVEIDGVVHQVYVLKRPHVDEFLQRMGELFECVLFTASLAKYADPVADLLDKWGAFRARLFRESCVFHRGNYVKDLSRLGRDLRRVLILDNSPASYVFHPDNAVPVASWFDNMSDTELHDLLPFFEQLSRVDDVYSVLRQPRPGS

Estrogen receptor = biological target: T5, Estrogen receptor (Homo sapiens, UniProt P03372); assay: ERα coactivator recruitment enhancers – biochemical, TR-FRET, ERα LBD, dose response (AID 737)
T5 sequence (P03372 whole entry): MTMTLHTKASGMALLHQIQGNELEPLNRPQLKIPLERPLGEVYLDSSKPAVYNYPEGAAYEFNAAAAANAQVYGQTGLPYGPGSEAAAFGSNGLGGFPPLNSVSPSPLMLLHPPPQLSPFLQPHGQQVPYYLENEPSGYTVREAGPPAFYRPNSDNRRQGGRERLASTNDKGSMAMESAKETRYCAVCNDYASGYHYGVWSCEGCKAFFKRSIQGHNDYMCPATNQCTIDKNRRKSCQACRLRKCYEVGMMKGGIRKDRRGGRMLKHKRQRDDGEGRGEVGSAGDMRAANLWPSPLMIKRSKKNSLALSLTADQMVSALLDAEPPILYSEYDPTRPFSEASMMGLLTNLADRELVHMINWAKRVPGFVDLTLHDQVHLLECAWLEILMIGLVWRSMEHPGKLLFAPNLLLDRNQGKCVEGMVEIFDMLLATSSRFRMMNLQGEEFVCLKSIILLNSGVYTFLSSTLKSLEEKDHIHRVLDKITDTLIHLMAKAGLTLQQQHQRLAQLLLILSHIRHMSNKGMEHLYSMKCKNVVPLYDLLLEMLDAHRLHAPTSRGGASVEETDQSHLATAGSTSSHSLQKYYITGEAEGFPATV

[9] = biological target: Peroxisome proliferator-activated receptor gamma/Nuclear receptor coactivator 1 (Homo sapiens, UniProt P37231); format: functional;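 also: agonist potency as compounds enhance coactivator SRC-1 recruitment to PPARgamma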
[10] = biological target: Peroxisome proliferator-activated receptor gamma/Nuclear receptor coactivator 3 (Homo sapiens, UniProt P37231); format: functional;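 also: agonist potency for raising coactivator recruitment to the receptor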
[11] = biological target: Peroxisome proliferator-activated receptor gamma/Nuclear receptor coactivator 2 (Homo sapiens, UniProt P37231); format: functional;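 also: agonist potency for raising coactivator recruitment to the receptor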
Peroxisome proliferator-activated receptor gamma/Nuclear receptor coactivator 2, sequence (P37231 whole entry): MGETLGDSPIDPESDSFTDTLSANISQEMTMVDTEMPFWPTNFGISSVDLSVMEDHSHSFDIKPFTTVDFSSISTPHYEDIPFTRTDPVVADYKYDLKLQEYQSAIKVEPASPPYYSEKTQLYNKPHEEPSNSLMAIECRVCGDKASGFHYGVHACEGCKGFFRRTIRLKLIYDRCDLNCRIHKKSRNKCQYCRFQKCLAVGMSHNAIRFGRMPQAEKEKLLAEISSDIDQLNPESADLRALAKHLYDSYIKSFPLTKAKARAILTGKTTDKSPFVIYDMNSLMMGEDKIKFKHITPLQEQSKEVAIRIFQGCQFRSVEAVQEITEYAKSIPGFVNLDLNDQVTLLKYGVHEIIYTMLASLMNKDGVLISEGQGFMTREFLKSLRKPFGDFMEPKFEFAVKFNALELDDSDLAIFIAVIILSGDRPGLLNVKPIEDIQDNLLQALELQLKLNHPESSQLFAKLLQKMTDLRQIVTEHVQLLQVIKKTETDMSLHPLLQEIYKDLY
Peroxisome proliferator-activated receptor gamma/Nuclear receptor coactivator 2, sequence (Q15596 whole entry, further chain): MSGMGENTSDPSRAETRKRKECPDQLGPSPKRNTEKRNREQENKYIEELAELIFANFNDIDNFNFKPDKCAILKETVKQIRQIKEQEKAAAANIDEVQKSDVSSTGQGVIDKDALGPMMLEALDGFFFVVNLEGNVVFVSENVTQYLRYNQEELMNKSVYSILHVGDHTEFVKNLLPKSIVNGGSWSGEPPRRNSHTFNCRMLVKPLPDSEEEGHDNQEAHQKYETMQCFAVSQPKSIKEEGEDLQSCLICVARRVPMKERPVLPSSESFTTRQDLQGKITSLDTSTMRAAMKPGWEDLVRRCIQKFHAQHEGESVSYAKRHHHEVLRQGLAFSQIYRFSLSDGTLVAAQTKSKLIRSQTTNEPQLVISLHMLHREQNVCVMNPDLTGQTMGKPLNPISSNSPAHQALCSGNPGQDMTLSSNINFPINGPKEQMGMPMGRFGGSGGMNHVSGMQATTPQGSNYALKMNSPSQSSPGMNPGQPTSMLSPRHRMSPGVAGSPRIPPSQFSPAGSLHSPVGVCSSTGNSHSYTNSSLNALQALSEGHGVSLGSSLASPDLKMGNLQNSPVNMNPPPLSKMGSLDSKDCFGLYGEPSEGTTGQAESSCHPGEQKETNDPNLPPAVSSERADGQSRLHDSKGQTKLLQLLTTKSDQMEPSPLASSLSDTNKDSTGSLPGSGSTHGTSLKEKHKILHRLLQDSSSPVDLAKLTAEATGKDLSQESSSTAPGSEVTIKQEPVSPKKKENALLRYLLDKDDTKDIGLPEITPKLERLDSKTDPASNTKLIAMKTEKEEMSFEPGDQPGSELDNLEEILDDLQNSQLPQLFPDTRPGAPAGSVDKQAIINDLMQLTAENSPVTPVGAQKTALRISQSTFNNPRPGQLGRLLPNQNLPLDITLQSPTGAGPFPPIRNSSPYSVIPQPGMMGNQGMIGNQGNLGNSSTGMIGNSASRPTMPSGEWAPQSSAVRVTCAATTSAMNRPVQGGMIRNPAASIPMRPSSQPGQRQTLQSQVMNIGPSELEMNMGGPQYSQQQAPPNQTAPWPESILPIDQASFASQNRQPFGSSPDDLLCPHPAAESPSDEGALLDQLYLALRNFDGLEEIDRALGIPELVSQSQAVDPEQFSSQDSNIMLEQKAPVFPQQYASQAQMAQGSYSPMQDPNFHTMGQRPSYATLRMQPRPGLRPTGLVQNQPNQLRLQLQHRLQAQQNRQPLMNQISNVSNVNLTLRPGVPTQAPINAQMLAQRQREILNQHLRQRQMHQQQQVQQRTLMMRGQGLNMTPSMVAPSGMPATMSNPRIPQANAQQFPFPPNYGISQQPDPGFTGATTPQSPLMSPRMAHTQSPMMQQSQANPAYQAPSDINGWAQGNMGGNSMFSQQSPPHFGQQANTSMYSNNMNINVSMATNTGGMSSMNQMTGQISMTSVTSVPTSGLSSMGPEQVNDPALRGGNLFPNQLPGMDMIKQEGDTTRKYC

T2 sequence (P11940 whole entry): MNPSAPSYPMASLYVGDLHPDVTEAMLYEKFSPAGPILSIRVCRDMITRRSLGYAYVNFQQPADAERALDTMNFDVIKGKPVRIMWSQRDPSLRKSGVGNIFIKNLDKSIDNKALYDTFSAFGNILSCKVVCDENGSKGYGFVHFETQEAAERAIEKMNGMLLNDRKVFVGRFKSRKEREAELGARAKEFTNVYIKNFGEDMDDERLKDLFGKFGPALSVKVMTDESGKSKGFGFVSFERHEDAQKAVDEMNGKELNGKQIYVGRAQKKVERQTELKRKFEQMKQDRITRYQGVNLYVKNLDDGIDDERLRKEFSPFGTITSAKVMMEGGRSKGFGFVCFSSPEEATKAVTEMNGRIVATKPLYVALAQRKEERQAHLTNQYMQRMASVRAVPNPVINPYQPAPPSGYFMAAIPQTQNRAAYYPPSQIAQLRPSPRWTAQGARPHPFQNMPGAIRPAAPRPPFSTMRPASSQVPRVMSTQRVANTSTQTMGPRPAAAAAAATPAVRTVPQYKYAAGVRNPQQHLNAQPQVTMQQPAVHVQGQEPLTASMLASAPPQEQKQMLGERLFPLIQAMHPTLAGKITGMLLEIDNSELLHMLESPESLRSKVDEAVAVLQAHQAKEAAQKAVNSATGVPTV
Protein-tyrosine kinase 2-beta, sequence (Q14289 whole entry): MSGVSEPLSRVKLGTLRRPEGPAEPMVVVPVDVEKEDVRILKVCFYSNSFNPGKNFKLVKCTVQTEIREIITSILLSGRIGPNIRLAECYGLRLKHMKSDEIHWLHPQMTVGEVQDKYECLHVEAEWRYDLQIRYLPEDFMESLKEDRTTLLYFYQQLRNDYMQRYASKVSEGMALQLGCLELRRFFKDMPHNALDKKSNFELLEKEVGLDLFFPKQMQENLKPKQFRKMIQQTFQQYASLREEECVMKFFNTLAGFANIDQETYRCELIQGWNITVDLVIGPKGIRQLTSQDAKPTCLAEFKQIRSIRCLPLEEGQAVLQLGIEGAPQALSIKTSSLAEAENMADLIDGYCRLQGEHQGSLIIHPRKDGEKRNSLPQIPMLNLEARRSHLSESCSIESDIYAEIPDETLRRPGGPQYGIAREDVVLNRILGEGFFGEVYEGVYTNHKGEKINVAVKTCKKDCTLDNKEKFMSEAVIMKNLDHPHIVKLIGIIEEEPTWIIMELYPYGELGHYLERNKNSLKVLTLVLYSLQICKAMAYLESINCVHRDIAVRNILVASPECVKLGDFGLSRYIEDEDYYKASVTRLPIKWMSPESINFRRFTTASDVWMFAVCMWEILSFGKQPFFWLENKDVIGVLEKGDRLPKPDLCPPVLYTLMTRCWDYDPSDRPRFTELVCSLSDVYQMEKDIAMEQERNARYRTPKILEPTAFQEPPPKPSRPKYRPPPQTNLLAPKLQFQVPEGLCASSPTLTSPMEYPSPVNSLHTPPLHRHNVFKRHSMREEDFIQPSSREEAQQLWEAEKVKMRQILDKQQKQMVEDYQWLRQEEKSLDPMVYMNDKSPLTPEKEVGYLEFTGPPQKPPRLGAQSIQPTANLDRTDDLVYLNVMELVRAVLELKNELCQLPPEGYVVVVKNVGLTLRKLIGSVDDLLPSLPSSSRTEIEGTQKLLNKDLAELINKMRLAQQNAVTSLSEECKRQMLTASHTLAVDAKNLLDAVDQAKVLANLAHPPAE
Mitogen-activated protein kinase 10, sequence (P53779 whole entry): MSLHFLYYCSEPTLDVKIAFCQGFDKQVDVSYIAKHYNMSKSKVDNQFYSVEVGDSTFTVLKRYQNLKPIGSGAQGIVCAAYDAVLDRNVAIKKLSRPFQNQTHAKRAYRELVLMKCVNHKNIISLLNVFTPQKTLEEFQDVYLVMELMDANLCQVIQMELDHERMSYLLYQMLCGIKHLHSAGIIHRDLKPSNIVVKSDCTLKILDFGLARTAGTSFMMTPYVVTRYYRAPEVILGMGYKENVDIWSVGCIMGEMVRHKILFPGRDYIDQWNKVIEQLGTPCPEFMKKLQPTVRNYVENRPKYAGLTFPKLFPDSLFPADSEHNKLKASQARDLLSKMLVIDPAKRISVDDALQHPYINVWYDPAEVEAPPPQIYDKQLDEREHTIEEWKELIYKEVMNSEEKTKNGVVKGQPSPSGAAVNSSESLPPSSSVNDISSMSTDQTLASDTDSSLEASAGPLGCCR
Eukaryotic translation initiation factor 4E, sequence (P63073 whole entry): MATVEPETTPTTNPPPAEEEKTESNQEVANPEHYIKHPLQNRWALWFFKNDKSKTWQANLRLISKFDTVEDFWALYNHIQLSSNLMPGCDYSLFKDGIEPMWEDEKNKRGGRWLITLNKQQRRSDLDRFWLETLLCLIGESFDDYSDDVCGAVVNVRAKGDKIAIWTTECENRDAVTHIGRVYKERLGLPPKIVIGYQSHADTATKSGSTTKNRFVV
Cytochrome P450 2C9, sequence (P11712 whole entry): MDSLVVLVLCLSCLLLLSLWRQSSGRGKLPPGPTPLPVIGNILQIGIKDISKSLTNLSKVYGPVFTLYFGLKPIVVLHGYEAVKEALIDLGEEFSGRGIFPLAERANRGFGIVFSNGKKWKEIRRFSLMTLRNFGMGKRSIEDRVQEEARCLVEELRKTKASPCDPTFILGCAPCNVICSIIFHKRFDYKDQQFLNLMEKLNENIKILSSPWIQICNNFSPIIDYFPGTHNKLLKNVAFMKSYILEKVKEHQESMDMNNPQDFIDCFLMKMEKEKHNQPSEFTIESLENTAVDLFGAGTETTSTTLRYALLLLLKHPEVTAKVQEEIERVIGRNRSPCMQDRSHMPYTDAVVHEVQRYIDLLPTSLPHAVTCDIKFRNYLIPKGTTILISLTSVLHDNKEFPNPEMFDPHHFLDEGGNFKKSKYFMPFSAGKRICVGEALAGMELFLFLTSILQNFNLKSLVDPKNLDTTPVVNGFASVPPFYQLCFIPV

Compound: Cc1cc(N)ccc1N1CCCC1
IC50 [2]: 1.82 µM (active)
IC50 (Bcl-2-like protein 10): 0.963 µM (active)
IC50 [3]: 33.1 µM (inactive)

Compound: CCN(CC)c1ccc(SS(=O)(=O)O)cc1
IC50 [4]: > 66 µM (inactive)
AC50 (Cytochrome P450 2C9): 5.01 µM (inconclusive)
IC50 [5]: 4.53 µM (active)
IC50 [6]: > 66 µM (inactive)

Compound: Cc1ccc(OC(=O)c2ccccc2P(=O)(O)O)cc1
IC50 [2]: 9.74 µM (active)

Further lines, results first:

IC50 [1]: 78.8 µM (not active)
Compound: COC(=O)c1cccc(Cn2nnc3ccccc3c2=O)c1

IC50 [7]: > 20 µM (inactive)
IC50 [1]: 73.1 µM (not active)
IC50 [8]: 35.8 µM (active)
Compound: O=C(CCCCCn1c(SCc2ccncc2)nc2ccccc2c1=O)NCc1ccco1

EC50 (Estrogen receptor): 13.4 µM (active)
Compound: NC(=O)c1oc2ccccc2c1NC(=O)c1nc2ccccc2s1

EC50 [9]: 21.6 µM (not active)
EC50 [10]: 25.5 µM (not active)
EC50 [11]: 18.8 µM (not active)
Compound: O=C(COC(=O)c1sc2ccccc2c1Cl)Nc1ncc(Cl)cc1Cl
